“And” between values parts separate entries of the source, which are not always exact repeats. Identical values can stand only once. Numbers after ± are expanded uncertainties.
Settings: Crystal, Calculated from knudsen effusion weight loss

O=[N+]([O-])c1ccccc1Br [1-bromo-2-nitrobenzene]
Settings	vapor or sublimation pressure
275.15 K	9.5e-05 ± 5e-06 kPa and 9.4e-05 ± 5e-06 kPa
277.15 K	0.000124 ± 6e-06 kPa and 0.000123 ± 6e-06 kPa
279.16 K	0.000164 ± 8e-06 kPa and 0.000165 ± 8e-06 kPa
281.17 K	0.00021 ± 1.1e-05 kPa and 0.000212 ± 1.1e-05 kPa and 0.000208 ± 1e-05 kPa
283.17 K	0.000279 ± 1.4e-05 kPa and 0.00028 ± 1.4e-05 kPa and 0.000277 ± 1.4e-05 kPa
285.17 K	0.000351 ± 1.8e-05 kPa and 0.000353 ± 1.8e-05 kPa and 0.00035 ± 1.8e-05 kPa
287.21 K	0.000451 ± 2.3e-05 kPa and 0.000459 ± 2.3e-05 kPa and 0.000448 ± 2.2e-05 kPa
289.17 K	0.000581 ± 2.9e-05 kPa and 0.000592 ± 3e-05 kPa and 0.000594 ± 3e-05 kPa
291.14 K	0.000733 ± 3.7e-05 kPa and 0.000729 ± 3.7e-05 kPa and 0.000735 ± 3.7e-05 kPa
293.14 K	0.000913 ± 4.6e-05 kPa and 0.000939 ± 4.7e-05 kPa and 0.000925 ± 4.6e-05 kPa
295.16 K	0.001204 ± 0.00013 kPa and 0.00121 ± 0.00013 kPa and 0.001218 ± 0.00013 kPa

O=[N+]([O-])c1cccc(Br)c1 [1-bromo-3-nitrobenzene]
Settings	vapor or sublimation pressure
279.57 K	0.000143 ± 7e-06 kPa and 0.000142 ± 7e-06 kPa and 0.000141 ± 7e-06 kPa
281.21 K	0.000184 ± 9e-06 kPa and 0.000183 ± 9e-06 kPa and 0.000181 ± 9e-06 kPa
283.14 K	0.000238 ± 1.2e-05 kPa and 0.000237 ± 1.2e-05 kPa and 0.000236 ± 1.2e-05 kPa
285.16 K	0.000299 ± 1.5e-05 kPa and 0.000294 ± 1.5e-05 kPa and 0.000301 ± 1.5e-05 kPa
287.19 K	0.000398 ± 2e-05 kPa and 0.000385 ± 1.9e-05 kPa and 0.000381 ± 1.9e-05 kPa
289.39 K	0.000507 ± 2.5e-05 kPa and 0.000506 ± 2.5e-05 kPa and 0.000496 ± 2.5e-05 kPa
291.16 K	0.000649 ± 3.3e-05 kPa and 0.00065 ± 3.3e-05 kPa and 0.000635 ± 3.2e-05 kPa
293.15 K	0.000817 ± 4.1e-05 kPa and 0.000815 ± 4.1e-05 kPa and 0.00079 ± 4e-05 kPa
295.17 K	0.001067 ± 0.00011 kPa and 0.001054 ± 0.00011 kPa and 0.001033 ± 0.0001 kPa

O=[N+]([O-])c1ccc(Br)cc1 [1-bromo-4-nitrobenzene]
Settings	vapor or sublimation pressure
289.15 K	0.000103 ± 5e-06 kPa and 0.000101 ± 5e-06 kPa and 9.9e-05 ± 5e-06 kPa
291.12 K	0.000122 ± 6e-06 kPa and 0.000119 ± 6e-06 kPa and 0.00012 ± 6e-06 kPa
293.14 K	0.00017 ± 9e-06 kPa and 0.000165 ± 8e-06 kPa and 0.000161 ± 8e-06 kPa
295.15 K	0.000209 ± 1e-05 kPa and 0.000202 ± 1e-05 kPa
297.14 K	0.000255 ± 1.3e-05 kPa and 0.000248 ± 1.2e-05 kPa
299.15 K	0.000332 ± 1.7e-05 kPa and 0.000337 ± 1.7e-05 kPa and 0.000333 ± 1.7e-05 kPa
301.13 K	0.000427 ± 2.1e-05 kPa and 0.00041 ± 2.1e-05 kPa and 0.000409 ± 2e-05 kPa
303.14 K	0.000526 ± 2.6e-05 kPa and 0.000537 ± 2.7e-05 kPa and 0.00052 ± 2.6e-05 kPa
305.14 K	0.000644 ± 3.2e-05 kPa and 0.000653 ± 3.3e-05 kPa and 0.000624 ± 3.1e-05 kPa
307.14 K	0.0008 ± 4e-05 kPa and 0.000809 ± 4.1e-05 kPa and 0.000788 ± 3.9e-05 kPa
309.15 K	0.00105 ± 0.00011 kPa and 0.001036 ± 0.0001 kPa and 0.00101 ± 0.0001 kPa
